The Kinase Knowledgebase extract (Sharma et al. 2016)

biological target: EGFR (human) (UniProt P00533); assay: not given
Sequence (P00533 whole entry, looked up): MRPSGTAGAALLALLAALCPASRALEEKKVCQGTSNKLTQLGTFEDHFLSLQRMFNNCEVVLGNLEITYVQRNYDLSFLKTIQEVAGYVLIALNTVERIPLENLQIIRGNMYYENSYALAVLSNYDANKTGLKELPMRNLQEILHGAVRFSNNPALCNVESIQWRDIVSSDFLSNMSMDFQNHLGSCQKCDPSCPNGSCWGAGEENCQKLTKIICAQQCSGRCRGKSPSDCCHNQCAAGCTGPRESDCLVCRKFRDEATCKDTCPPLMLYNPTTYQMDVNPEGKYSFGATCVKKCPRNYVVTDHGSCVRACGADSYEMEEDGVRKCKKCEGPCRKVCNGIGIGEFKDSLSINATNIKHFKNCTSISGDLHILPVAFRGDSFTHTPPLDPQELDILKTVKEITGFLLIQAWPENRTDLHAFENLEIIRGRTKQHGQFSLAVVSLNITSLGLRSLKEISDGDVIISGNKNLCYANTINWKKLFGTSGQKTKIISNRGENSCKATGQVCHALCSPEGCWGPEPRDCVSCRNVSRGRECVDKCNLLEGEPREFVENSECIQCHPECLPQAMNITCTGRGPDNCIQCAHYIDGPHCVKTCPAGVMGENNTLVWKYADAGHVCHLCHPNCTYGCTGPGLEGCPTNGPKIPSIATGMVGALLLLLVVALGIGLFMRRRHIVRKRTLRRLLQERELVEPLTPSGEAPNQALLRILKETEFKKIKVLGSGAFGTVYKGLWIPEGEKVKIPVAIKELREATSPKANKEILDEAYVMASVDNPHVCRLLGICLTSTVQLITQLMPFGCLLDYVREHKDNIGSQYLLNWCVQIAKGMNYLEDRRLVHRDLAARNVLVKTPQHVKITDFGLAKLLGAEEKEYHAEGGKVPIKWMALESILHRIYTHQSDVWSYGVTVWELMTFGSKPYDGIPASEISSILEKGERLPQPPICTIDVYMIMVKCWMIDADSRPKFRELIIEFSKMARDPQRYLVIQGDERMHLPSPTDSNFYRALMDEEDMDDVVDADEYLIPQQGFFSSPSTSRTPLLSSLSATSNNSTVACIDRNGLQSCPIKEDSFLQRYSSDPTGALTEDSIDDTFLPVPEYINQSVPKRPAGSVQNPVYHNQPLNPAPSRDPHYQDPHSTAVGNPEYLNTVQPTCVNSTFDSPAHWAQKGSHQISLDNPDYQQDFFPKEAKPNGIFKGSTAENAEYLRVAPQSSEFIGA

IC50 [µM] | Compound
≤ 10 | CCCS(=O)(=O)Nc1ccc(F)c(C(=O)c2c[nH]c3ncc(-c4ccc(OC)cc4)cc23)c1F
≤ 10 | COc1ccc(-c2cnc3[nH]cc(C#Cc4ccccc4)c3c2)cc1OC
≤ 10 | O=C(Nc1ccc(F)c(C(O)c2c[nH]c3ncc(-c4cccnc4)cc23)c1F)OCc1ccccc1 (stereo not given)

biological target: MAPK14 (human) (UniProt Q16539); assay: Inhibition of MAPK14 Kinase Activity
Sequence (Q16539 whole entry, looked up): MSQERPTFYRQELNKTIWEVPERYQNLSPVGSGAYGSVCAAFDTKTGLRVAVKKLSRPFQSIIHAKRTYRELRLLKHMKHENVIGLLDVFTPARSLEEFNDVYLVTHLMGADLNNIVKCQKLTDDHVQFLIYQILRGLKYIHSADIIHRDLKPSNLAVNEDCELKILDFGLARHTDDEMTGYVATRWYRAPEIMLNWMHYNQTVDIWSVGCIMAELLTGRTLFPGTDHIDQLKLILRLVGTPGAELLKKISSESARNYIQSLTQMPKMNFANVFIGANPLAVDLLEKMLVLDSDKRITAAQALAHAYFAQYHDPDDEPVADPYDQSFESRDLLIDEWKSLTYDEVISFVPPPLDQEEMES

IC50 [µM] | Compound
≤ 10 | CS(=O)(=O)c1cccc(-c2cnc3[nH]cc(C(=O)c4cccc(O)c4F)c3c2)c1
≤ 10 | O=C(c1cccc(O)c1F)c1c[nH]c2ncc(-c3ccccc3)cc12
≤ 10 | CCc1cnc2[nH]cc(C(=O)c3cccc(O)c3)c2c1
≤ 10 | CS(=O)(=O)Nc1ccc(F)c(C(=O)c2c[nH]c3ncc(-c4cccc(C(N)=O)c4)cc23)c1
≤ 10 | CS(=O)(=O)Nc1ccc(Cl)c(C(=O)c2c[nH]c3ncc(-c4cccnc4)cc23)c1F
≤ 10 | NC(=O)c1ccc(-c2cnc3[nH]cc(C(=O)c4ccccc4F)c3c2)cc1
≤ 10 | O=C(c1cc(O)ccc1F)c1c[nH]c2ncccc12
≤ 10 | COc1cccc(C(=O)c2c[nH]c3ncc(-c4cccc(C(N)=O)c4)cc23)c1
≤ 10 | O=C(Nc1ccc(F)c(C(=O)c2c[nH]c3ncc(-c4cccnc4)cc23)c1F)OCc1ccccc1
≤ 10 | CS(=O)(=O)Nc1ccc(F)c(C(=O)c2c[nH]c3ncc(-c4ccccc4)cc23)c1F
≤ 10 | CCS(=O)(=O)Nc1ccc(F)c(C(=O)c2c[nH]c3ncc(-c4cccnc4)cc23)c1F
≤ 10 | c1cnc2ccc(Nc3ccnc4[nH]ccc34)cc2c1
≤ 10 | O=C(c1cccc(O)c1)c1c[nH]c2ncc(Br)cc12
≤ 10 | CS(=O)(=O)Nc1cccc(-c2cnc3[nH]cc(C(=O)c4c(Cl)ccc(NS(C)(=O)=O)c4F)c3c2)c1
≤ 10 | NC(=O)c1cccc(-c2cnc3[nH]cc(C(=O)c4cccc(O)c4F)c3c2)c1
≤ 10 | O=C(c1cc(F)ccc1F)c1c[nH]c2ncc(-c3ccsc3)cc12
≤ 10 | O=C(c1cccc(Cl)c1Cl)c1c[nH]c2ncc(-c3cccnc3)cc12
≤ 10 | Cn1cc(C(F)(F)F)c(-c2ccc(S(=O)(=O)NCc3c[nH]c4ncccc34)s2)n1
≤ 10 | CCCS(=O)(=O)Nc1ccc(F)c(C(=O)c2c[nH]c3ncc(Cl)cc23)c1F
≤ 10 | O=C(c1cccc(NCc2ccccc2)c1)c1c[nH]c2ncccc12
≤ 10 | COc1cccc(C(=O)c2c[nH]c3ncc(-c4cccnc4)cc23)c1
≤ 10 | Cc1ccc(F)cc1C(=O)c1c[nH]c2ncc(-c3cccc(NS(C)(=O)=O)c3)cc12
≤ 10 | Cc1ccc(F)cc1C(=O)c1c[nH]c2ncc(-c3ccc(C(N)=O)cc3)cc12
≤ 10 | CS(=O)(=O)c1cccc(-c2cnc3[nH]cc(C(=O)c4cc(O)ccc4F)c3c2)c1
≤ 10 | COC(=O)Nc1ccc(F)c(Cc2c[nH]c3ncc(-c4cccnc4)cc23)c1F
≤ 10 | CCCS(=O)(=O)Nc1ccc(F)c(C(=O)c2c[nH]c3ncc(Br)cc23)c1F

IC50 [µM] | Compound
≤ 10 | Cc1nc(-c2ccnc3[nH]ccc23)no1
≤ 10 | CS(=O)(=O)Nc1cccc(-c2cnc3[nH]cc(C(=O)c4c(F)ccc(NS(C)(=O)=O)c4F)c3c2)c1
≤ 10 | O=C(c1c(F)ccc(O)c1F)c1c[nH]c2ncc(-c3cccnc3)cc12
≤ 10 | Oc1cccc(Cc2c[nH]c3ncc(-c4ccsc4)cc23)c1
≤ 10 | Clc1ccc(Nc2ccnc3[nH]ccc23)cc1Cl
≤ 10 | O=C(c1ccccc1F)c1c[nH]c2ncc(-c3ccccn3)cc12
≤ 10 | CS(=O)(=O)Nc1ccc(F)c(C(=O)c2c[nH]c3ncc(-c4cccc(C(N)=O)c4)cc23)c1F
≤ 10 | COc1cccc(CCc2c[nH]c3ncc(-c4ccsc4)cc23)c1
≤ 10 | O=C(c1cccc(O)c1)c1c[nH]c2ncc(-c3ccsc3)cc12
≤ 10 | O=C(c1cccc(O)c1F)c1c[nH]c2ncc(-c3cccs3)cc12
≤ 10 | O=C(c1cccc(F)c1F)c1c[nH]c2nccc(-c3cc(F)cc(F)c3)c12
≤ 10 | COc1cc(O)cc(Cc2c[nH]c3ncc(-c4ccsc4)cc23)c1
≤ 10 | CCCNC(=O)Nc1ccc(F)c(C(=O)c2c[nH]c3ncc(-c4cccnc4)cc23)c1F
≤ 10 | O=C(O)C=Cc1cccc(-c2cnc3[nH]cc(C(=O)c4cc(O)ccc4F)c3c2)c1
≤ 10 | CC(=O)Nc1cccc(-c2cnc3[nH]cc(C(=O)c4cccc(O)c4F)c3c2)c1
≤ 10 | CCCS(=O)(=O)Nc1ccc(F)c(C(=O)c2c[nH]c3ncc(-c4ccccc4)cc23)c1F
≤ 10 | CS(=O)(=O)Nc1ccc(F)c(C(=O)c2c[nH]c3ncc(-c4ccccc4)cc23)c1
≤ 10 | COc1ccc(F)c(C(=O)c2c[nH]c3ncc(-c4cccnc4)cc23)c1
≤ 10 | NC(=O)c1ccc(-c2cnc3[nH]cc(C(=O)c4cccc(O)c4)c3c2)cc1
≤ 10 | O=C(c1cccc(O)c1F)c1c[nH]c2ncc(-c3cccnc3)cc12
≤ 10 | COc1cccc(C(=O)c2c[nH]c3ncc(-c4cccc(N)c4)cc23)c1
≤ 10 | Nc1cccc(-c2cnc3[nH]cc(C(=O)c4ccc5nsnc5c4)c3c2)c1
≤ 10 | O=C(c1c(F)ccc(NS(=O)(=O)c2ccccc2)c1F)c1c[nH]c2ncc(Br)cc12
≤ 10 | NC(=O)c1cccc(-c2cnc3[nH]cc(C(=O)c4cc(O)ccc4F)c3c2)c1
≤ 10 | Cc1c(O)cccc1C(=O)c1c[nH]c2ncc(-c3cccs3)cc12
≤ 10 | O=C(Nc1ccc(Cc2c[nH]c3ncccc23)cc1)Nc1cccc(C(F)(F)F)c1

IC50 [µM] | Compound
≤ 10 | CS(=O)(=O)Nc1ccc(F)c(C(=O)c2c[nH]c3ncc(-c4cccnc4)cc23)c1
≤ 10 | Cc1ccc(S(=O)(=O)NCc2c[nH]c3ncccc23)cc1
≤ 10 | Nc1cccc(-c2cnc3[nH]cc(C(=O)c4ccccc4F)c3c2)c1
≤ 10 | CS(=O)(=O)Nc1ccc(F)c(C(=O)c2c[nH]c3ncc(Br)cc23)c1
≤ 10 | O=C(c1ccc(O)cc1Cl)c1c[nH]c2ncc(-c3cccs3)cc12
≤ 10 | O=C(c1cc(O)ccc1F)c1c[nH]c2ncc(-c3ccccc3)cc12
≤ 10 | Cc1ccc(F)cc1C(=O)c1c[nH]c2ncc(-c3ccsc3)cc12
≤ 10 | O=C(c1c(F)ccc(NS(=O)(=O)c2ccccc2)c1F)c1c[nH]c2ncc(-c3cccnc3)cc12
≤ 10 | O=S(=O)(NCc1c[nH]c2ncccc12)c1cc(Cl)c(Cl)s1
≤ 10 | Cc1c(NS(C)(=O)=O)cccc1C(=O)c1c[nH]c2ncc(-c3ccccc3)cc12
≤ 10 | Brc1ccc(C=Cc2c[nH]c3ncccc23)cc1
≤ 10 | O=C(c1cc(O)ccc1F)c1c[nH]c2ncc(-c3cccs3)cc12
≤ 10 | COc1cccc(C(=O)c2c[nH]c3ncc(-c4cccs4)cc23)c1
≤ 10 | CS(=O)(=O)Nc1ccc(Cl)c(C(=O)c2c[nH]c3ncc(-c4cccc(S(C)(=O)=O)c4)cc23)c1F
≤ 10 | CS(=O)(=O)Nc1cccc(-c2cnc3[nH]cc(C(=O)c4cc(NS(C)(=O)=O)ccc4F)c3c2)c1
≤ 10 | CCCS(=O)(=O)Nc1ccc(Cl)c(C(=O)c2c[nH]c3ncc(-c4cccnc4)cc23)c1F
≤ 10 | O=C(Nc1ccc(Cc2c[nH]c3ncccc23)cc1)Nc1ccc(Cl)c(C(F)(F)F)c1
≤ 10 | O=S(=O)(NCc1c[nH]c2ncccc12)c1ccc(N2CCOCC2)nc1
≤ 10 | CC(=O)Nc1cccc(-c2cnc3[nH]cc(C(=O)c4ccccc4F)c3c2)c1
≤ 10 | CCCS(=O)(=O)Nc1ccc(Cl)c(C(=O)c2c[nH]c3ncc(-c4ccccc4)cc23)c1F
≤ 10 | O=C(c1ccccc1F)c1c[nH]c2ncccc12
≤ 10 | Fc1ccc(/C=C/c2ccnc3[nH]ccc23)cc1
≤ 10 | O=C(c1cc(O)ccc1F)c1c[nH]c2ncc(-c3ccsc3)cc12
≤ 10 | O=C(c1cccc(O)c1)c1c[nH]c2ncc(-c3cccs3)cc12
≤ 10 | CS(=O)(=O)Nc1cccc(-c2cnc3[nH]cc(C(=O)c4cccc(O)c4F)c3c2)c1
≤ 10 | Nc1cccc(-c2cnc3[nH]cc(C(=O)c4cccc(Cl)c4Cl)c3c2)c1

IC50 [µM] | Compound
≤ 10 | Cc1c(O)cccc1C(=O)c1c[nH]c2ncc(-c3ccccc3)cc12
≤ 10 | Cc1ccccc1C(=O)c1c[nH]c2ncc(-c3cccc(N)c3)cc12
≤ 10 | Oc1ccc(F)c(Cc2c[nH]c3ncc(Br)cc23)c1F
≤ 10 | Nc1cccc(-c2cnc3[nH]cc(C(=O)c4ccc(Cl)cc4)c3c2)c1
≤ 10 | O=C(c1cc(O)ccc1F)c1c[nH]c2ncc(Br)cc12
≤ 10 | CCc1cnc2[nH]cc(C(=O)c3cccc(OC)c3)c2c1
≤ 10 | CS(=O)(=O)Nc1ccc(F)c(C(=O)c2c[nH]c3ncc(-c4cccc(S(C)(=O)=O)c4)cc23)c1
≤ 10 | c1cc(Nc2ccc3ncsc3c2)c2cc[nH]c2n1
≤ 10 | CS(=O)(=O)Nc1cccc(-c2cnc3[nH]cc(C(=O)c4cc(O)ccc4F)c3c2)c1
≤ 10 | CS(=O)(=O)Nc1ccc(F)c(C(=O)c2c[nH]c3ncc(-c4cccc(S(C)(=O)=O)c4)cc23)c1F
≤ 10 | CS(=O)(=O)Nc1ccc(F)c(C(=O)c2c[nH]c3ncc(-c4cccnc4)cc23)c1F
≤ 10 | Oc1cc(O)cc(Cc2c[nH]c3ncc(-c4ccsc4)cc23)c1
≤ 10 | O=C(c1ccccc1O)c1c[nH]c2ncc(-c3cccs3)cc12
≤ 10 | O=C(c1cc(O)ccc1F)c1c[nH]c2ncc(-c3cccnc3)cc12
≤ 10 | Cc1ccccc1C(=O)c1c[nH]c2ncc(-c3ccsc3)cc12
≤ 10 | Cc1cccc(N(C)c2ccnc3[nH]ccc23)c1
≤ 10 | CS(=O)(=O)Nc1ccc(Cl)c(C(=O)c2c[nH]c3ncc(Br)cc23)c1F
≤ 10 | O=C(c1cccc(O)c1F)c1c[nH]c2ncc(-c3cncnc3)cc12
≤ 10 | Cc1c(O)cccc1C(=O)c1c[nH]c2ncc(-c3cccnc3)cc12
≤ 10 | O=C(c1c(F)ccc(NCc2ccccc2)c1F)c1c[nH]c2ncc(-c3cccnc3)cc12
≤ 10 | Nc1ccc(F)c(C(=O)c2c[nH]c3ncc(-c4cccnc4)cc23)c1F
≤ 10 | O=C(c1ccccc1F)c1c[nH]c2ncc(-c3ccsc3)cc12
≤ 10 | CCCS(=O)(=O)Nc1ccc(F)c(C(=O)c2c[nH]c3ncc(-c4cccnc4)cc23)c1F

Compound | IC50 [µM]
c1ccc2c(Cc3c[nH]c4ncccc34)cccc2c1 | ≤ 10
